# Test results: patent publication EP0019589A1, “Tripeptide derivatives and their use in a process for determining enzymes” (Pentapharm A.G., priority 1979, dated 1980)
# Non-standard residues stand in square brackets, D forms with d. Residues, ends and D or L forms follow the SMILES beside them. *: point of attachment. dCha = N[C@H](CC1CCCCC1)C(=O)O; dChg = N[C@@H](C(=O)O)C1CCCCC1; dPhg = N[C@@H](C(=O)O)c1ccccc1; pNA = O=[N+]([O-])c1ccc(N*)cc1; Chg = N[C@H](C(=O)O)C1CCCCC1; Phg = N[C@H](C(=O)O)c1ccccc1; dNva = CCC[C@@H](N)C(=O)O; dPip = O=C(O)[C@H]1CCCCN1
# Experiments:
# Type in all cases: biochemical
# [1] = molecular target: T1, Urinkallikrein (Homo sapiens, UniProt P06870); test: Cleavage of chromogenic substrate by urinary kallikrein in human urine; settings: 1 ml human urine (pooled morning urine of healthy persons), per min; Substratkonzentration 2 x 10^-4 molar
# T1 construct: 1 ml Urin und 1 ml TRIS-Imidazol-Puffer mit pH 7,9; from tissue; host or cells: human urine
# T1 sequence (P06870 25-262): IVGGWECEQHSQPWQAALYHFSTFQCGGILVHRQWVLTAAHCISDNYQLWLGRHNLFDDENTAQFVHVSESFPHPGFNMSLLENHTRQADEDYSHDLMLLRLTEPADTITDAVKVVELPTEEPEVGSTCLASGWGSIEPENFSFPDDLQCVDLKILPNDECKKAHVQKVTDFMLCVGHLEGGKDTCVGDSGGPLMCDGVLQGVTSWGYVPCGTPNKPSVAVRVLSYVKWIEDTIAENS
# [2] = molecular target: T2, Humanthrombin (Homo sapiens, UniProt P00734); test: Cleavage of chromogenic substrate by human NIH thrombin; settings: 1 NIH-Einheit human thrombin, per min; Substratkonzentration 2 x 10^-4 molar
# T2 construct: Humanplasmin und hu-manem NIH-Thrombin
# Summary of the method: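 Thrombin hydrolysis of chromogenic p-nitroanilide substrate read spectrophotometrically at 405 nm; fluorogenic naphthylamine, methylcoumarylamine or di(methoxycarbonyl)phenylamine substrates read continuously by fluorescence emission at 400-470 nm. Activity taken as product formed per unit time; 1 µmol product/min defined as 1 enzyme unit for a given substrate.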
# [3] = molecular target: T3, Humanplasmin (Homo sapiens, UniProt P00747); test: Cleavage of chromogenic substrate by human plasmin; settings: 1 CU-Einheit human plasmin, per min; Substratkonzentration 2 x 10^-4 molar
# T3 construct: da bei der Aktivierung aus 1 Molekül Plasminogen 1 Molekül Plasmin entsteht
# T3 sequence (P00747 581-810 limits assumed): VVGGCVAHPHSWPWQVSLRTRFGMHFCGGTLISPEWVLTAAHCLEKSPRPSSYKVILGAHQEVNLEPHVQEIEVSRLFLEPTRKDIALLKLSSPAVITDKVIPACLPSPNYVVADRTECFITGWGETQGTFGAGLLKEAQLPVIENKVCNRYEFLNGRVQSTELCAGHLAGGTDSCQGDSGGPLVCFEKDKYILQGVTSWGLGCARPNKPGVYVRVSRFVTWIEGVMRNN
# T3 sequence (P00747 97-580 partner limits assumed): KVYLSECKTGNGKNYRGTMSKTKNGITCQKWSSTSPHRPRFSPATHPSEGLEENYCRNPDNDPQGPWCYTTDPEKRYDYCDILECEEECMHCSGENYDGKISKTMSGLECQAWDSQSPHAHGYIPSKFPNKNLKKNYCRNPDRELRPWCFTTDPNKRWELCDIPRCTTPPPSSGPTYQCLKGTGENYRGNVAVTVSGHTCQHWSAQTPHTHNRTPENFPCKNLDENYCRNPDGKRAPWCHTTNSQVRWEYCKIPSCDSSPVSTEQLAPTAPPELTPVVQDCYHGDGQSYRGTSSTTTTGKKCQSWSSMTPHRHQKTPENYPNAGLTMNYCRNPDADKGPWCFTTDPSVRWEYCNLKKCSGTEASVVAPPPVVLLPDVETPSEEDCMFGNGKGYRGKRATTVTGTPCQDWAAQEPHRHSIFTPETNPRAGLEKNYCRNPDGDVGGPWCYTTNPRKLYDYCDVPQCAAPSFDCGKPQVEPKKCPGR
# [4] = molecular target: T4, Submandibularis-Kallikrein (Homo sapiens, UniProt P06870); test: Cleavage of chromogenic substrate by submandibular (glandular) kallikrein in human sputum; settings: 1 ml human sputum, per min; Substratkonzentration 2 x 10^-4 molar
# T4 construct: Man mischt 0,5 ml Sputum mit 2 ml TRIS-Imidazol-Puffer; from tissue; host or cells: human sputum
# T4 sequence (P06870 25-262): as the sequence (P06870 25-262) above
# Summary of the method: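 Sputum mixed with TRIS-imidazole buffer (ionic strength 1.0), preincubated 5 min at 37°C and centrifuged; supernatant incubated with aqueous substrate solution (2 x 10^-3 M, stock). p-Nitroaniline release followed continuously at 405 nm for 5-10 min; activity expressed as mU per ml sputum from ΔOD/min.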
SMILES,Menge des durch 1 ml Humanurin pro Min. freigesetzten Spaltproduktes R-NH2 in Nanomol (Urinkallikrein) [1],Menge des durch 1 NIH-Einheit Thrombin pro Min. freigesetzten Spaltproduktes R-NH2 in Nanomol (Humanthrombin) [2],Menge des durch 1 CU-Einheit Humanplasmin pro Min. freigesetzten Spaltproduktes R-NH2 in Nanomol (Humanplasmin) [3],Menge des durch 1 ml Humansputum pro Min. freigesetzten Spaltproduktes R-NH2 in Nanomol (Submandibularis-Kallikrein) [4]
"C[C@H](NC(=O)[C@H](N)C1CCCCC1)C(=O)N[C@@H](CCCNC(=N)N)C(=O)Nc1ccc([N+](=O)[O-])cc1 [Beispiel 48, 2HBr.H-D-CHG-Ala-Arg-pNA] (H-[dChg]-Ala-Arg-pNA)","0,72 Nanomol",158 Nanomol,239 Nanomol,"9,5 Nanomol"
"C[C@H](NC(=O)[C@H](N)CC1CCCCC1)C(=O)N[C@@H](CCCNC(=N)N)C(=O)Nc1ccc([N+](=O)[O-])cc1 [Beispiel 49, 2HBr.H-D-CHA-Ala-Arg-pNA] (H-[dCha]-Ala-Arg-pNA)","0,66 Nanomol","163,5 Nanomol",389 Nanomol,"10,6 Nanomol"
"CC(C)C[C@H](NC(=O)[C@H](N)Cc1ccccc1)C(=O)N[C@@H](CCCNC(=N)N)C(=O)Nc1ccc([N+](=O)[O-])cc1 [Beispiel 50, 2HBr.H-D-Phe-Leu-Arg-pNA] (H-[dF]-Leu-Arg-pNA)","0,61 Nanomol","14,4 Nanomol",313 Nanomol,"6,8 Nanomol"
"CC(C)C[C@H](NC(=O)[C@H](N)CC1CCC(O)CC1)C(=O)N[C@@H](CCCNC(=N)N)C(=O)Nc1ccc([N+](=O)[O-])cc1 (stereo partly drawn) [Beispiel 51, 2HBr.H-D-CHT-Leu-Arg-pNA]","0,33 Nanomol","58,1 Nanomol",596 Nanomol,"11,7 Nanomol"
"CC(C)C[C@H](NC(=O)[C@H](N)CC1CCCCC1)C(=O)N[C@@H](CCCNC(=N)N)C(=O)Nc1ccc([N+](=O)[O-])cc1 [Beispiel 52, 2HBr.H-D-CHA-Leu-Arg-pNA] (H-[dCha]-Leu-Arg-pNA)","0,64 Nanomol","57,6 Nanomol",555 Nanomol,"8,8 Nanomol"
"CC(C)C[C@@H](N)C(=O)N[C@H](C(=O)N[C@@H](CCCNC(=N)N)C(=O)Nc1ccc([N+](=O)[O-])cc1)c1ccccc1 [Beispiel 53, 2HBr.H-D-Leu-Ph'Gly-Arg-pNA] (H-[dL]-[Phg]-Arg-pNA)","0,67 Nanomol","27,4 Nanomol",422 Nanomol,"25,8 Nanomol"
"CCC[C@@H](N)C(=O)N[C@H](C(=O)N[C@@H](CCCNC(=N)N)C(=O)Nc1ccc([N+](=O)[O-])cc1)c1ccccc1 [Beispiel 54, 2HBr.H-D-Nval-Ph'Gly-Arg-pNA] (H-[dNva]-[Phg]-Arg-pNA)","0,58 Nanomol","19,2 Nanomol",382 Nanomol,"22,9 Nanomol"
"C[C@@H](N)C(=O)N[C@H](C(=O)N[C@@H](CCCNC(=N)N)C(=O)Nc1ccc([N+](=O)[O-])cc1)c1ccccc1 [Beispiel 55, 2HBr.H-D-Ala-Ph'Gly-Arg-pNA] (H-[dA]-[Phg]-Arg-pNA)","0,42 Nanomol","4,2 Nanomol",141 Nanomol,"23,5 Nanomol"
"N=C(N)NCCC[C@H](NC(=O)[C@@H](NC(=O)[C@H](N)CC1CCCCC1)c1ccccc1)C(=O)Nc1ccc([N+](=O)[O-])cc1 [Beispiel 56, 2HBr.H-D-CHA-Ph'Gly-Arg-pNA] (H-[dCha]-[Phg]-Arg-pNA)","0,64 Nanomol","120,2 Nanomol",559 Nanomol,"29,4 Nanomol"
"N=C(N)NCCC[C@H](NC(=O)[C@@H](NC(=O)[C@H](N)CC1CCC(O)CC1)c1ccccc1)C(=O)Nc1ccc([N+](=O)[O-])cc1 (stereo partly drawn) [Beispiel 57, 2HBr.H-D-CHT-Ph'Gly-Arg-pNA]","0,45 Nanomol","112,1 Nanomol",591 Nanomol,"31,1 Nanomol"
"N=C(N)NCCC[C@H](NC(=O)[C@@H](NC(=O)[C@H](N)C1CCCCC1)c1ccccc1)C(=O)Nc1ccc([N+](=O)[O-])cc1 [Beispiel 58, 2HBr.H-D-CHG-Ph'Gly-Arg-pNA] (H-[dChg]-[Phg]-Arg-pNA)","0,38 Nanomol","63,7 Nanomol",446 Nanomol,"22,1 Nanomol"
"N=C(N)NCCC[C@H](NC(=O)[C@@H](NC(=O)[C@H](N)C1CCCCC1)C1CCCCC1)C(=O)Nc1ccc([N+](=O)[O-])cc1 [Beispiel 59, 2HBr.H-D-CHG-CHG-Arg-pNA] (H-[dChg]-[Chg]-Arg-pNA)","0,33 Nanomol","7,5 Nanomol",101 Nanomol,"5,9 Nanomol"
"N=C(N)NCCC[C@H](NC(=O)[C@@H](NC(=O)[C@H]1CCCCN1)C1CCCCC1)C(=O)Nc1ccc([N+](=O)[O-])cc1 [Beispiel 60, 2HBr.H-D-Pip-CHG-Arg-pNA] (H-[dPip]-[Chg]-Arg-pNA)",0 Nanomol,"1,3 Nanomol",10 Nanomol,"1,4 Nanomol"
"N=C(N)NCCC[C@H](NC(=O)[C@@H](NC(=O)[C@H](N)Cc1ccccc1)C1CCCCC1)C(=O)Nc1ccc([N+](=O)[O-])cc1 [Beispiel 61, 2HBr.H-D-Phe-CHG-Arg-pNA] (H-[dF]-[Chg]-Arg-pNA)","0,33 Nanomol","3,7 Nanomol",60 Nanomol,"4,9 Nanomol"
"N=C(N)NCCC[C@H](NC(=O)[C@@H](NC(=O)[C@H](N)c1ccccc1)C1CCCCC1)C(=O)Nc1ccc([N+](=O)[O-])cc1 [Beispiel 62, 2HBr.H-D-Ph'Gly-CHG-Arg-pNA] (H-[dPhg]-[Chg]-Arg-pNA)","0,25 Nanomol","2,4 Nanomol",26 Nanomol,"7,2 Nanomol"
"N=C(N)NCCC[C@H](NC(=O)[C@H](Cc1ccccc1)NC(=O)[C@H](N)c1ccccc1)C(=O)Nc1ccc([N+](=O)[O-])cc1 [Beispiel 63, 2HBr.H-D-Ph'Gly-Phe-Arg-pNA] (H-[dPhg]-Phe-Arg-pNA)","0,42 Nanomol","2,4 Nanomol",841 Nanomol,"7,0 Nanomol"
"N=C(N)NCCC[C@H](NC(=O)[C@H](Cc1ccccc1)NC(=O)[C@H](N)CC1CCCCC1)C(=O)Nc1ccc([N+](=O)[O-])cc1 [Beispiel 64, 2HBr.H-D-CHA-Phe-Arg-pNA] (H-[dCha]-Phe-Arg-pNA)","0,5 Nanomol","25,8 Nanomol",1261 Nanomol,"9,7 Nanomol"
